According to the supplement of paper PMC11061612:

How the values were obtained:
Carboplatin = compound: C1CC(C1)(C(=O)[O-])C(=O)[O-].N.N.[Pt+2] [Carboplatin]; settings: max 10 µM
Procedure, shortened: (§1)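 Cancer cell lines in 1536-well plates (7.5 μl DMEM/F12 or RPMI, 10% FBS) were held 24 hours at 37°C and 5% CO2 and then dosed for 72 hours at a final DMSO of typically 0.2%. Viability was taken from CellTiter-Glo 2.0 luminescence, scaled between blank-well and DMSO-well means. Curves were fitted as two-parameter logistic models with a non-linear mixed effects model, from which the single-agent IC50 was taken.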

AZD5363 = compound: C1CN(CCC1(C(=O)N[C@@H](CCO)C2=CC=C(C=C2)Cl)N)C3=NC=NC4=C3C=CN4 [AZD5363]; settings: max 10 µM
Procedure, shortened: as §1

AZD1775 = compound: C=CCn1c(=O)c2cnc(Nc3ccc(N4CCN(C)CC4)cc3)nc2n1-c1cccc(C(C)(C)O)n1 [AZD1775]; settings: max 3 µM
Procedure, shortened: as §1

Trametinib = compound: CC(=O)Nc1cccc(-n2c(=O)n(C3CC3)c(=O)c3c(Nc4ccc(I)cc4F)n(C)c(=O)c(C)c32)c1 [Trametinib]; settings: max 1 µM
Procedure, shortened: as §1

Paclitaxel = compound: CC(=O)O[C@H]1C(=O)[C@@]2(C)[C@H]([C@H](OC(=O)c3ccccc3)[C@]3(O)C[C@H](OC(=O)[C@H](O)[C@@H](NC(=O)c4ccccc4)c4ccccc4)C(C)=C1C3(C)C)[C@]1(OC(C)=O)CO[C@@H]1C[C@@H]2O [Paclitaxel]; settings: max 3 µM
Procedure, shortened: as §1

Palbociclib = compound: CC(=O)c1c(C)c2cnc(Nc3ccc(N4CCNCC4)cn3)nc2n(C2CCCC2)c1=O [Palbociclib]; settings: max 10 µM
Procedure, shortened: as §1

AZD1390 = compound: CC(C)n1c(=O)n(C)c2cnc3cc(F)c(-c4ccc(OCCCN5CCCCC5)nc4)cc3c21 [AZD1390]; settings: max 0.3 µM
Procedure, shortened: as §1

Venetoclax = compound: CC1(C)CCC(CN2CCN(c3ccc(C(=O)NS(=O)(=O)c4ccc(NCC5CCOCC5)c([N+](=O)[O-])c4)c(Oc4cnc5[nH]ccc5c4)c3)CC2)=C(c2ccc(Cl)cc2)C1 [Venetoclax]; settings: max 1 µM
Procedure, shortened: as §1

Dasatinib = compound: CC1=C(C(=CC=C1)Cl)NC(=O)C2=CN=C(S2)NC3=CC(=NC(=N3)C)N4CCN(CC4)CCO [Dasatinib]; settings: max 2 µM
Procedure, shortened: as §1

SG3199 = compound: CC1=CN2[C@@H](C1)C=NC3=CC(=C(C=C3C2=O)OC)OCCCCCOC4=C(C=C5C(=C4)N=C[C@@H]6CC(=CN6C5=O)C)OC [SG3199]; settings: max 0.001 µM
Procedure, shortened: as §1

AZD2811 = compound: CCN(CCO)CCCOc1ccc2c(Nc3cc(CC(=O)Nc4cccc(F)c4)[nH]n3)ncnc2c1 [AZD2811]; settings: max 1 µM
Procedure, shortened: as §1

SN-38 = compound: CCc1c2c(nc3ccc(O)cc13)-c1cc3c(c(=O)n1C2)COC(=O)[C@]3(O)CC [SN-38]; settings: max 0.3 µM
Procedure, shortened: as §1

AZD0156 = compound: CN(C)CCCOc1ccc(-c2ccc3ncc4c(c3c2)n(C2CCOCC2)c(=O)n4C)cn1 [AZD0156]; settings: max 3 µM
Procedure, shortened: as §1

AZD4320 = compound: CN(CC[C@H](CSC1=CC=CC=C1)NC2=C(C=C(C=C2)S(=O)(=O)NC(=O)C3=CC=C(C=C3)N4CCC(CC4)[C@H](C5=CC=CC=C5C6=CC=C(C=C6)Cl)O)S(=O)(=O)C(F)(F)F)CCO [AZD4320]; settings: max 1 µM
Procedure, shortened: as §1

Alisertib = compound: COc1cc(Nc2ncc3c(n2)-c2ccc(Cl)cc2C(c2c(F)cccc2OC)=NC3)ccc1C(=O)O [Alisertib]; settings: max 10 µM
Procedure, shortened: as §1

Etoposide = compound: COc1cc([C@@H]2c3cc4c(cc3[C@@H](O[C@@H]3O[C@@H]5CO[C@@H](C)O[C@H]5[C@H](O)[C@H]3O)[C@H]3COC(=O)[C@H]23)OCO4)cc(OC)c1O [Etoposide]; settings: max 10 µM
Procedure, shortened: as §1

Gefitinib = compound: COc1cc2ncnc(Nc3ccc(F)c(Cl)c3)c2cc1OCCCN1CCOCC1 [Gefitinib]; settings: max 10 µM
Procedure, shortened: as §1

Prexasertib = compound: COc1cccc(OCCCN)c1-c1cc(Nc2cnc(C#N)cn2)n[nH]1 [Prexasertib]; settings: max 1 µM
Procedure, shortened: as §1

Doxorubicin = compound: COc1cccc2c1C(=O)c1c(O)c3c(c(O)c1C2=O)C[C@@](O)(C(=O)CO)C[C@@H]3O[C@H]1C[C@H](N)[C@H](O)[C@H](C)O1 [Doxorubicin]; settings: max 1 µM
Procedure, shortened: as §1

AZD5153 = compound: COc1nnc2ccc(N3CCC(c4ccc(OCCN5CCN(C)C(=O)[C@H]5C)cc4)CC3)nn12 [AZD5153]; settings: max 1 µM
Procedure, shortened: as §1

Lapatinib = compound: CS(=O)(=O)CCNCc1ccc(-c2ccc3ncnc(Nc4ccc(OCc5cccc(F)c5)c(Cl)c4)c3c2)o1 [Lapatinib]; settings: max 10 µM
Procedure, shortened: as §1

AZD8186 = compound: C[C@@H](Nc1cc(F)cc(F)c1)c1cc(C(=O)N(C)C)cc2c(=O)cc(N3CCOCC3)oc12 [AZD8186]; settings: max 10 µM
Procedure, shortened: as §1

Crizotinib = compound: C[C@@H](Oc1cc(-c2cnn(C3CCNCC3)c2)cnc1N)c1c(Cl)ccc(F)c1Cl [Crizotinib]; settings: max 10 µM
Procedure, shortened: as §1

Savolitinib = compound: C[C@@H](c1ccc2nccn2c1)n1nnc2ncc(-c3cnn(C)c3)nc21 [Savolitinib]; settings: max 1 µM
Procedure, shortened: as §1

AZD6738 = compound: C[C@@H]1COCCN1C2=NC(=NC(=C2)C3(CC3)[S@](=N)(=O)C)C4=C5C=CNC5=NC=C4 [AZD6738]; settings: max 10 µM
Procedure, shortened: as §1

AZD5991 = compound: Cc1c2c(nn1C)CSCc1cc(n(C)n1)CSc1cc(c3ccccc3c1)OCCCc1c(C(=O)O)n(C)c3c-2c(Cl)ccc13 [AZD5991]; settings: max 1 µM
Procedure, shortened: as §1

AZD7648 = compound: Cc1cc2ncnn2cc1Nc1ncc2c(n1)n(C1CCOCC1)c(=O)n2C [AZD7648]; settings: max 10 µM
Procedure, shortened: as §1

Taselisib = compound: Cc1nc(-c2cn3c(n2)-c2ccc(-c4cnn(C(C)(C)C(N)=O)c4)cc2OCC3)n(C(C)C)n1 [Taselisib]; settings: max 10 µM
Procedure, shortened: as §1

Selumetinib = compound: Cn1cnc2c(F)c(Nc3ccc(Br)cc3Cl)c(C(=O)NOCCO)cc21 [Selumetinib]; settings: max 10 µM
Procedure, shortened: as §1

SRA737 = compound: N#Cc1cnc(Nc2cc(NC[C@H]3CNCCO3)c(C(F)(F)F)cn2)cn1 [SRA737]; settings: max 10 µM
Procedure, shortened: as §1

MK-2206 = compound: NC1(c2ccc(-c3nc4ccn5c(=O)[nH]nc5c4cc3-c3ccccc3)cc2)CCC1 [MK-2206]; settings: max 10 µM
Procedure, shortened: as §1

Gemcitabine = compound: Nc1ccn([C@@H]2O[C@H](CO)[C@@H](O)C2(F)F)c(=O)n1 [Gemcitabine]; settings: max 0.3 µM
Procedure, shortened: as §1

[1] = compound: O=C(Nc1ccc2[nH]nc(-c3ccncc3)c2c1)[C@@H]1CCN(CC(=O)N2CCN(c3ccc(-c4ncccn4)cc3)CC2)C1; settings: max 5 µM
Procedure, shortened: as §1

Olaparib = compound: O=C(c1cc(Cc2n[nH]c(=O)c3ccccc23)ccc1F)N1CCN(C(=O)C2CC2)CC1 [Olaparib]; settings: max 10 µM
Procedure, shortened: as §1

5-Fluorouracil = compound: O=c1[nH]cc(F)c(=O)[nH]1 [5-Fluorouracil]; settings: max 20 µM
Procedure, shortened: as §1

Cell Line | IC50, cell viability 72 h (Carboplatin) | IC50, cell viability 72 h (AZD5363) | IC50, cell viability 72 h (AZD1775) | IC50, cell viability 72 h (Trametinib) | IC50, cell viability 72 h (Paclitaxel) | IC50, cell viability 72 h (Palbociclib) | IC50, cell viability 72 h (AZD1390) | IC50, cell viability 72 h (Venetoclax) | IC50, cell viability 72 h (Dasatinib) | IC50, cell viability 72 h (SG3199) | IC50, cell viability 72 h (AZD2811) | IC50, cell viability 72 h (SN-38) | IC50, cell viability 72 h (AZD0156) | IC50, cell viability 72 h (AZD4320) | IC50, cell viability 72 h (Alisertib) | IC50, cell viability 72 h (Etoposide) | IC50, cell viability 72 h (Gefitinib) | IC50, cell viability 72 h (Prexasertib) | IC50, cell viability 72 h (Doxorubicin) | IC50, cell viability 72 h (AZD5153) | IC50, cell viability 72 h (Lapatinib) | IC50, cell viability 72 h (AZD8186) | IC50, cell viability 72 h (Crizotinib) | IC50, cell viability 72 h (Savolitinib) | IC50, cell viability 72 h (AZD6738) | IC50, cell viability 72 h (AZD5991) | IC50, cell viability 72 h (AZD7648) | IC50, cell viability 72 h (Taselisib) | IC50, cell viability 72 h (Selumetinib) | IC50, cell viability 72 h (SRA737) | IC50, cell viability 72 h (MK-2206) | IC50, cell viability 72 h (Gemcitabine) | IC50, cell viability 72 h [1] | IC50, cell viability 72 h (Olaparib) | IC50, cell viability 72 h (5-Fluorouracil)
LS-180 (Colorectal Carcinoma) | > 10000 nM | > 10000 nM | 2030 nM | 74.4 nM | 30.5 nM | 9720 nM | > 300 nM | > 1000 nM | > 2000 nM | > 1 nM | > 1000 nM | 21.1 nM | > 3000 nM | > 1000 nM | 7410 nM | 1920 nM | > 10000 nM | 103 nM | 168 nM | 673 nM | > 10000 nM | > 10000 nM | > 10000 nM | > 1000 nM | 3420 nM | > 1000 nM | > 10000 nM | 2160 nM | 2680 nM | > 10000 nM | > 10000 nM | 11.8 nM | 2850 nM | > 10000 nM | > 20000 nM
LB831-BLC (Bladder Carcinoma) | > 10000 nM | > 10000 nM | 2140 nM | > 1000 nM | 69.1 nM | > 10000 nM | > 300 nM | > 1000 nM | > 2000 nM | > 1 nM | > 1000 nM | 45.8 nM | > 3000 nM | > 1000 nM | > 10000 nM | > 10000 nM | > 10000 nM | > 1000 nM | 821 nM | > 1000 nM | > 10000 nM | > 10000 nM | > 10000 nM | > 1000 nM | > 10000 nM | > 1000 nM | > 10000 nM | 5820 nM | > 10000 nM | > 10000 nM | > 10000 nM | 202 nM | > 5000 nM | > 10000 nM | > 20000 nM
T98G (Glioblastoma) | > 10000 nM | > 10000 nM | 1050 nM | > 1000 nM | 14.6 nM | > 10000 nM | > 300 nM | > 1000 nM | 287 nM | > 1 nM | > 1000 nM | > 300 nM | > 3000 nM | > 1000 nM | > 10000 nM | > 10000 nM | > 10000 nM | 31 nM | > 1000 nM | > 1000 nM | > 10000 nM | 5450 nM | > 10000 nM | > 1000 nM | 2590 nM | > 1000 nM | > 10000 nM | 5870 nM | > 10000 nM | 2040 nM | > 10000 nM | 119 nM | > 5000 nM | > 10000 nM | > 20000 nM
Ramos-2G6-4C10 (Burkitt's Lymphoma) | > 10000 nM | > 10000 nM | 307 nM | > 1000 nM | 15.9 nM | > 10000 nM | > 300 nM | > 1000 nM | > 2000 nM | > 1 nM | > 1000 nM | 78.3 nM | > 3000 nM | > 1000 nM | > 10000 nM | 9170 nM | > 10000 nM | 10.5 nM | 684 nM | 389 nM | > 10000 nM | > 10000 nM | > 10000 nM | > 1000 nM | 3090 nM | 168 nM | > 10000 nM | > 10000 nM | > 10000 nM | 3720 nM | 5610 nM | > 300 nM | > 5000 nM | > 10000 nM | > 20000 nM
HCC-78 (Lung Adenocarcinoma) | > 10000 nM | > 10000 nM | 1380 nM | > 1000 nM | > 3000 nM | > 10000 nM | > 300 nM | > 1000 nM | > 2000 nM | > 1 nM | > 1000 nM | 7.04 nM | > 3000 nM | > 1000 nM | > 10000 nM | 2350 nM | > 10000 nM | 99.6 nM | 493 nM | > 1000 nM | > 10000 nM | > 10000 nM | 9580 nM | > 1000 nM | > 10000 nM | > 1000 nM | > 10000 nM | 5890 nM | > 10000 nM | > 10000 nM | > 10000 nM | 32.7 nM | > 5000 nM | > 10000 nM | > 20000 nM
